Test results reported in article PMC4916434, “Evaluation of the inhibition potential of plumbagin against cytochrome P450 using LC-MS/MS and cocktail approach” (Scientific Reports, 2016).

Legend:
[1] = target: T1, CYP2B1 (Rattus norvegicus, UniProt P00176); type: in vitro ADME
T1 construct: consisting of pooled HLMs (0.5 mg/ml) or RLMs (1 mg/ml) and an NADPH-regenerating system; from tissue; host or cells: rat liver microsomes prepared in house
T1 sequence (P00176 1-491): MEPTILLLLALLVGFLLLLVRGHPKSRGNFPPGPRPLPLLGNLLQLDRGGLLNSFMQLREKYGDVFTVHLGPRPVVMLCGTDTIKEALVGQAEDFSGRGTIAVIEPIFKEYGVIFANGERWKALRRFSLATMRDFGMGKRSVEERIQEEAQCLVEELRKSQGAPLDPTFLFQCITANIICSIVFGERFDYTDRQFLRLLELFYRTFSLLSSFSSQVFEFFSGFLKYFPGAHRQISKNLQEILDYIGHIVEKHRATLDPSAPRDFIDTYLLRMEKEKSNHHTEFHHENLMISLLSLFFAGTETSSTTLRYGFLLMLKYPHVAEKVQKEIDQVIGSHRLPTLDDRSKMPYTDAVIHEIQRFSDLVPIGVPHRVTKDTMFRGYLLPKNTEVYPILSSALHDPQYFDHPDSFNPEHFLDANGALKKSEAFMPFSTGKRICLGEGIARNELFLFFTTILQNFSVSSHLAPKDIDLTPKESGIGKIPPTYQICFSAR
Procedure: (§1) In this study, the rats were fasted overnight and killed by cervical dislocation before removal of the liver. The liver was excised, rinsed with ice-cold saline (0.9% NaCl w/v), weighed and homogenized in a […] Tris/KCl buffer (pH 7.4). Subsequently, the homogenate was centrifuged at 10,000 × g at 4 °C for 30 min. The supernatant was then centrifuged at 105,000 × g at 4 °C for 60 min. The pellet was reconstituted with […] Tris/KCl buffer (pH 7.4) and stored at −150 °C until use. The protein concentration of the liver microsomes was determined by a protein quantitative assay using bicinchoninic acid[22].
(§2) Microsomal incubation was carried out at 37 °C in a mixture of 200 μl in 0.05 M Tris/HCl buffer (pH 7.4) consisting of pooled HLMs (0.5 mg/ml) or RLMs (1 mg/ml) and an NADPH-regenerating system including MgCl2 (5 mM), G6P (10 mM), G6PDH (0.4 U/ml) and NADP (1 mM). Substrates were added into the incubation mixture and obtained the final concentrations (10 μM phenacetin for CYP1A2, 20 μM bupropion for CYP2B1/6, 20 μM tolbutamide for CYP2C9/11, 5 μM dextromethorphan for CYP2D1/6, 20 μM chlorzoxazone for CYP2E1 and 10 μM midazolam for CYP3A2/4), which were close to Km respectively. The proportion of organic solvent was not higher than 1% (v/v) in the incubation mixture. After pre-incubation for 5 min, the reaction was initiated by addition of NADP. Incubations were performed for 20 min, stopped by adding 200 μl ice-cold acetonitrile. And then 20 μl internal standard solution was added (3-acetamidophenol 2 μg/ml, chlorpropamide 2 μg/ml and mebendazole 2 μg/ml). The solution was mixed thoroughly for 3 min and centrifuged for 10 min at 16,000 × g at 4 °C. The supernatant (60 μl) was transferred to autosampler vials, and 2 μl was injected into LC-MS/MS system.
(§3) The IC50 (concentration of inhibitor to cause 50% inhibition of original enzyme activity) values were determined with the same incubation condition above. The specific concentrations of plumbagin were ranged from 0.1 μM to 50 μM. The IC50 values were calculated by plotting relative activities over the logarithm of plumbagin concentrations using GraphPad Prism 5.0 (GraphPad software Inc., CA, USA).
(§4) Cocktail probe substrates were then added and incubated for 20 min. Reactions were stopped with 200 μl ice-cold acetonitrile. The samples were treated according to the microsomal incubation method and then injected into LC-MS/MS for analysis.
(§5) Kinetic studies were performed for determining the types of inhibition on CYP by plumbagin. Pooled HLMs (0.5 mg/ml) or RLMs (1 mg/ml) with plumbagin (1 μM, 2 μM, 5 μM and 10 μM) were incubated in 0.05 M Tris/HCl buffer (pH 7.4) for 20 min at 37 °C. A series of concentrations for cocktail probe substrates were used: 2.5–20 μM phenacetin for CYP1A2; 5–40 μM bupropion for CYP2B1/6; 5–40 μM tolbutamide for CYP2C9/11; 1.25–10 μM dextromethorphan for CYP2D1/6; 5–40 μM chlorzoxazone for CYP2E1; 2.5–80 μM midazolam for CYP3A2; and 0.625–5 μM midazolam for CYP3A4. Enzyme kinetics as well as statistical analysis were performed using GraphPad Prism 5.0.
(§6) All data were presented as mean ± SD. The IC50 values were fitted by non-linear regression analysis using GraphPad Prism 5.0. The kinetic parameters were obtained by fitting velocity data to kinetic models (Michaelis-Menten) using GraphPad Prism 5.0. The Lineweaver-Burk Plot (the reciprocal of reaction velocities versus the reciprocal of substrates concentrations) was used to determine the quality of fit to a specific inhibition model. The inhibition constant (Ki) was obtained by a secondary plot using the slopes of the primary Lineweaver-Burk Plot (Km/Vmax versus inhibitor concentrations). αKi was obtained from a secondary plot using the y-intercepts of the Lineweaver-Burk plot (1/Vmax versus inhibitor concentrations). All results were analyzed in quadruplicate. One-way analysis of variance was used to estimate the significance of differences. […]

[2] = target: T2, CYP1A2 (Rattus norvegicus, UniProt P04799); test: CYP1A2 inhibition (phenacetin O-deethylation) in rat liver microsomes, cocktail LC-MS/MS; type: in vitro ADME
T2 construct: consisting of pooled HLMs (0.5 mg/ml) or RLMs (1 mg/ml) and an NADPH-regenerating system; from tissue; host or cells: rat liver microsomes prepared in house
T2 sequence (P04799 1-513): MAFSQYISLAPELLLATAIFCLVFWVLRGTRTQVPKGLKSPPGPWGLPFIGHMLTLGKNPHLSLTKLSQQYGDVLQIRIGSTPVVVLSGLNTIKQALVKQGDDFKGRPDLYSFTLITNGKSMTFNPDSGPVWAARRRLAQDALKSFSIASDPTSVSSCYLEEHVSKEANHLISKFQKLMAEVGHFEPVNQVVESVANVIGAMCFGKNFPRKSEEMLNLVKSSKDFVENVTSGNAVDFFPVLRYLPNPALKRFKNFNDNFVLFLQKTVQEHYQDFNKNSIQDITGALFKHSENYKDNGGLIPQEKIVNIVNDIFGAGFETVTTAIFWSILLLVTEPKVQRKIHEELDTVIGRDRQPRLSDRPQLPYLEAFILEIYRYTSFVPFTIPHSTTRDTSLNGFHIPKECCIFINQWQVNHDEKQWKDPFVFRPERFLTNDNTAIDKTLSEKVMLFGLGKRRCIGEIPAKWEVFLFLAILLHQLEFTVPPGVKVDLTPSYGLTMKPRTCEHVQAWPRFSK
Procedure: as §1, §2, §3, §4, §5, §6

Structure (SMILES): CC1=CC(=O)c2c(O)cccc2C1=O [plumbagin, 5-hydroxy-2-methyl-1,4-naphthoquinone]
- IC50 [1]: 5.86 µM
- Ki [1]: 9.93 µM
- Type of inhibition [1]: competitive
- IC50 [2]: 2.65 µM
- Ki [2]: 2.64 µM
- α ([2]; RLMs): 0.31
- Type of inhibition ([2]; RLMs, Lineweaver-Burk): mixed-type
- Time-dependent inhibition ([2]; RLMs, pre-incubation with NADPH 0, 5, 10, 20 min, plumbagin 0.2, 0.5, 1 μM): no time-dependent inhibition
- αKi ([2]; RLMs, secondary plot of y-intercepts, phenacetin 2.5-20 μM): 8.51 µM
